Molecular target: full length XPA protein (Homo sapiens, UniProt P23025)
Test: biochemical
Settings: IC50 (μM), EMSA, 32P labeled 30 bp duplex DNA containing a single 1,2 dGpG cisplatin adduct, several values in a cell = separate determinations
Description: Purified XPA (lanes 2-18) was mixed with DMSO (Lane 2, C) control or the indicated compound at a concentration of 50 μM (Lanes 3-18). ^32P labeled ds-platinum damaged DNA was added and incubation continued for 30 minutes on ice. The products were separated on a 6% native gel by electrophoresis at 4° C. Products were detected and quantified by PhosphorImager analysis.
EMSA was carried out using previously described procedure with the following modification. Reactions were performed in volume of 20 μL, containing a ^32P labeled 30 bp duplex DNA containing a single 1,2 dGpG cisplatin adduct. Compounds were pre-incubated on ice with the indicated amount of XPA and products separated by electrophoresis on a non-denaturing 6% polyacrylamide gel. Gels were cooled, loaded and electrophoresis performed at 4° C. Gels were used to expose a Phosphorlmager screen and band intensity determined and % binding and inhibition calculated as we have previously described.
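Further: XPA expressed in Sf9 cells, preincubated with compound on ice before adding DNA, complex resolved on native polyacrylamide gel at 4 °C, PhosphorImager band intensity, binding inhibition versus DMSO.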

Sequence of full length XPA protein (P23025 whole entry): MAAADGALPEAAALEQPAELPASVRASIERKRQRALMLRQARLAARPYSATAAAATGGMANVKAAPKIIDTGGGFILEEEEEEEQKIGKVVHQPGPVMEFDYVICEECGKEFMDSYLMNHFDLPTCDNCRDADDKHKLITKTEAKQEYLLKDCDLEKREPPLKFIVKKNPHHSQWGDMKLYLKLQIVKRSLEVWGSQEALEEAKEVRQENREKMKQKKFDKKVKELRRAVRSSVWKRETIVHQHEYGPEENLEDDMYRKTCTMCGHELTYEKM

| IC50 [µM] | SMILES |
| --- | --- |
| 7 | CC1=NN(c2cccc(C(=O)O)c2)C(=O)/C1=C\c1ccc(-c2ccc(Cl)c(C(=O)NCc3ccc(F)cc3)c2)s1 [NG-03-227, (Z)-3-(4-((5-(4-Chloro-3-((4-fluorobenzyl)carbamoyl)phenyl)thiophen-2-yl)methylene)-3-methyl-5-oxo-4,5-dihydro-1H-pyrazol-1-yl)benzoic acid] |
| 42 | CC1=NN(c2cccc(C(=O)O)c2)C(=O)C1Cc1ccc(-c2ccc(Cl)c(C(=O)NCC3CC3)c2)o1 (stereo not shown) [NG-01-72R, 3-(4-((5-(4-Chloro-3-((cyclopropylmethyl)carbamoyl)phenyl)furan-2-yl)methyl)-3-methyl-5-oxo-4,5-dihydro-1H-pyrazol-1-yl)benzoic acid] |
| 40 | CCOC(=O)c1cccc(N2N=C(C(F)(F)F)/C(=C/c3ccc(-c4ccc(Cl)c(C(=O)O)c4)o3)C2=O)c1 [NG-04-300, 2-chloro-5-(5-((1-(3-(ethoxycarbonyl)phenyl)-5-oxo-3-(trifluoromethyl)-1,5-dihydro-4H-pyrazol-4-ylidene)methyl)furan-2-yl)benzoic acid] |
| 12 | CC1=NN(c2ccc(C(=O)O)cc2)C(=O)/C1=C\c1ccc(-c2ccc(Cl)c(C(=O)O)c2)s1 [NG-03-234, (Z)-5-(5-((1-(4-Carboxyphenyl)-3-methyl-5-oxo-1,5-dihydro-4H-pyrazol-4-ylidene)methyl)thiophen-2-yl)-2-chlorobenzoic acid] |

Source: patent publication US11207296B2, “XPA inhibitor compounds and their use” (INDIANA UNIVERSITY RESEARCH AND TECHNOLOGY CORPORATION, priority 2017, dated 2021)
